Experimental data: ChEMBL document CHEMBL1128062, “Tricyclic -lactams: total synthesis and antibacterial activity of 5- and 5-methoxy-tribactams” (1995)

Columns and labels:
Format in all cases: functional
Escherichia coli [1] = experiment: Antibacterial activity against wild Escherichia coli DC0
Proteus mirabilis = experiment: Antibacterial activity against permeable beta-lactamase producing Proteus mirabilis 355
Enterococcus faecalis = experiment: Antibacterial activity against Enterococcus faecalis 850
Enterobacter cloacae = experiment: Antibacterial activity against permeable beta-lactamase producing Enterobacter cloacae 3647
Haemophilus influenzae = experiment: Antibacterial activity against Haemophilus influenzae 49247
Escherichia coli [2] = experiment: Antibacterial activity against permeable Escherichia coli DC2
Pseudomonas aeruginosa [3] = experiment: Antibacterial activity against Pseudomonas aeruginosa 2032E WT
Staphylococcus aureus [4] = experiment: Antibacterial activity against methicillin resistant Staphylococcus aureus COL
Escherichia coli [5] = experiment: Antibacterial activity against permeable beta-lactamase producing Escherichia coli DC2 TEML
Staphylococcus aureus [6] = experiment: Antibacterial activity against methicillin resistant Staphylococcus aureus 1131
Clostridium perfringens = experiment: Antibacterial activity against Clostridium perfringens 615E
Pseudomonas aeruginosa [7] = experiment: Antibacterial activity against Pseudomonas aeruginosa 1911E
Staphylococcus aureus [8] = experiment: Antibacterial activity against beta-lactamase producing Staphylococcus aureus 853E
Pseudomonas aeruginosa [9] = experiment: Antibacterial activity against permeable mutant Pseudomonas aeruginosa 2033E
Staphylococcus aureus [10] = experiment: Antibacterial activity against penicillin sensitive Staphylococcus aureus 663E
Bacteroides fragilis = experiment: Antibacterial activity against Bacteroides fragilis 2017E

SMILES | MIC (Escherichia coli [1]) | MIC (Proteus mirabilis) | MIC (Enterococcus faecalis) | MIC (Enterobacter cloacae) | MIC (Haemophilus influenzae) | MIC (Escherichia coli [2]) | MIC (Pseudomonas aeruginosa [3]) | MIC (Staphylococcus aureus [4]) | MIC (Escherichia coli [5]) | MIC (Staphylococcus aureus [6]) | MIC (Clostridium perfringens) | MIC (Pseudomonas aeruginosa [7]) | MIC (Staphylococcus aureus [8]) | MIC (Pseudomonas aeruginosa [9]) | MIC (Staphylococcus aureus [10]) | MIC (Bacteroides fragilis)
CC1(C)CCC2(C)CCC(C)(C)NC2=N1.CO[C@H]1CC[C@H]2C(=C(C(=O)O)N3C(=O)[C@H]([C@@H](C)O)[C@@H]23)C1 | 1 µg/mL | 4 µg/mL | 4 µg/mL | 1 µg/mL | 0.5 µg/mL | 1 µg/mL | > 32 µg/mL | > 32 µg/mL | 1 µg/mL | 32 µg/mL | 0.5 µg/mL | > 32 µg/mL | 0.5 µg/mL | 1 µg/mL | 0.25 µg/mL | 1 µg/mL
CC1(C)CCC2(C)CCC(C)(C)NC2=N1.CO[C@@H]1CC[C@H]2C(=C(C(=O)O)N3C(=O)[C@H]([C@@H](C)O)[C@@H]23)C1 | 16 µg/mL | 32 µg/mL | > 32 µg/mL | 16 µg/mL | 16 µg/mL | 0.5 µg/mL | > 32 µg/mL | > 32 µg/mL | 1 µg/mL | > 32 µg/mL | 8 µg/mL | > 32 µg/mL | 1 µg/mL | 16 µg/mL | 1 µg/mL | 32 µg/mL
C[C@@H](O)[C@H]1C(=O)N2C(C(=O)O)=C(SCCNC=N)C[C@H]12.O [IMIPENEM] | 0.5 µg/mL | 1 µg/mL | 1 µg/mL | 2 µg/mL | 1 µg/mL | 0.5 µg/mL | 4 µg/mL | > 32 µg/mL | 0.5 µg/mL | 4 µg/mL | 0.06 µg/mL | 4 µg/mL | 0.13 µg/mL | 0.5 µg/mL | 0.13 µg/mL | 0.13 µg/mL
